According to patent US9555038B2, “Heterocycle-substituted tetracyclic compounds and methods of use thereof for the treatment of viral diseases” (Merck Sharp & Dohme Corp., priority 2013, dated 2017):
Read-outs that look alike come from different tables or passages of the source.

Tests used:
[1] = test system: HCV replicon 2B; assay: Cell-based HCV Replicon Assay A, replicon 2B
Description: (§1) To measure cell-based anti-HCV activity of compounds of the present invention, two complimentary assays were employed using various replicons. In the first assay (“Replicon Assay A”), replicon cells were seeded at 2000 cells/well in 384-well 384-well flat bottom tissue culture treated clear bottom plate (Corning 3707) in the presence of the test compound. Various concentrations of test compound, typically in 10 serial dilutions, were added to the assay mixture, with the starting concentration ranging from 333.3 nM to […]. The final concentration of DMSO was 0.5%. Fetal bovine serum was 5%, in the assay media. Cells were harvested on day 3 by removing media and washing the cells with a suitable wash buffer. The cells are lysed with the addition of 1× Qiagen lysis buffer (Cat #1062731). The replicon RNA level was measured using real time PCR (TaqMan® EZ RT-PCR, Applied Biosystems 403028) with the following primers and probes: […]
(§2) Cyclophilin RNA was used as endogenous control and was amplified in the same reaction as NS5B (multiplex PCR). The real-time RT-PCR reactions were run on ABI PRISM 7900HT Sequence Detection System using the following program: 50° C. for 2 minutes, 60° C. for 30 minutes, 95° C. for 5 minutes, 40 cycles of 94° C. for 20 sec, 55° C. for 1 minutes.
(§3) The amount of HCV replicon RNA per cell is quantified using a linear regression curve for a known nanogram (ng) amount of HCV replicon total RNA. This is established by plotting the Cycle Threshold values (Ct) from the Neo probe and primer set versus the log (ng) for each HCV replicon total RNA standard. The amount of HCV RNA for each replicon sample is calculated by taking the sample's Ct value, minus the line intercept, divided by the slope of the line. Similarly, the amount of Cyclophilin mRNA per cell is also quantified using a linear regression curve for a known nanogram (ng) amount of HCV replicon total RNA. Again, this is established by plotting the Cycle Threshold values (Ct) from the Cyclophilin probe and primer set versus the log (ng) for each HCV replicon total RNA standard.
(§4) Data was obtained for various compounds of the present invention using the methods described in the Example above, and is presented in the table immediately below. Data for replicons 1A, 1AY93H and 2B were obtained using Replicon Assay A and data for replicons 1AQ30D and 1B were obtained using Replicon Assay B.

[2] = test system: HCV replicon 1AY93H; assay: Cell-based HCV Replicon Assay A, replicon 1AY93H
Description: as §1, §2, §3, §4

[3] = test system: HCV replicon 1A; assay: Cell-based HCV Replicon Assay A, replicon 1A
Description: as §1, §2, §3, §4

[4] = read-out: 1A Y93H IC50, replicon 1AY93H
[5] = Hepatitis C virus, read-out: 2B IC50 (nM), replicon 2B
[6] = Hepatitis C virus, read-out: 1A Y93H IC50 (nM), replicon 1AY93H

| SMILES | IC50 ([1]; read-out: 2B IC50, replicon 2B) | IC50 [2, 4] | IC50 ([3]; Hepatitis C virus) | IC50 [1, 5] | IC50 [2, 6] | IC50 [3] | IC50 ([1]; replicon 2B, read-out: 2B IC50) | IC50 ([2]; replicon 1AY93H, read-out: 1A Y93H IC50) |
| --- | --- | --- | --- | --- | --- | --- | --- | --- |
| COC(=O)NC(C(=O)N1[C@@H]2C[C@@H]2C[C@H]1c1ncc(-c2ccc3c(c2)cc2n3C(c3cnc(C4CCCC4)s3)Oc3cc(-c4cnc([C@@H]5CCCN5C(=O)[C@@H](NC(=O)OC)C(C)C)[nH]4)cc(F)c3-2)[nH]1)C(C)(C)F (single isomer, unassigned) [Compound 327] | 0.011 nM | 0.002 nM | 0.0012 nM |  |  |  |  |  |
| COC(=O)N[C@H](C(=O)N1CCC[C@H]1c1ncc(-c2cc(F)c3c(c2)OC(c2ncc(C4CC4)s2)n2c-3cc3cc(-c4cnc([C@@H]5CCCN5C(=O)[C@@H](NC(=O)OC)C(C)C)[nH]4)ccc32)[nH]1)C(C)C (single isomer, unassigned) [Compound 7] | 2.14 nM | 4.23 nM | 0.0014 nM |  |  |  |  |  |
| COC(=O)NC(C(=O)N1[C@@H]2C[C@@H]2C[C@H]1c1ncc(-c2ccc3c(c2)cc2n3C(c3cnc(C4CCC4)s3)Oc3cc(-c4cnc([C@@H]5CCCN5C(=O)[C@@H](NC(=O)OC)C(C)C)[nH]4)cc(C)c3-2)[nH]1)C(C)(C)F (single isomer, unassigned) [Compound 224] |  |  | 0.0027 nM | 0.204 nM | 0.462 nM |  |  |  |
| COC(=O)N[C@H](C(=O)N1CCC[C@H]1c1ncc(-c2cc(F)c3c(c2)OC(c2cnc(-c4ccc(F)cc4)s2)n2c-3cc3cc(-c4cnc([C@@H]5CCCN5C(=O)[C@@H](NC(=O)OC)C(C)C)[nH]4)ccc32)[nH]1)C(C)C (single isomer, unassigned) [Compound 32] | 0.231 nM | 0.344 nM |  |  |  | 0.0012 nM |  |  |
| COC(=O)NC(C(=O)N1CCC[C@H]1c1ncc(-c2ccc3c(c2)cc2n3C(c3cnc(CC(C)C)s3)Oc3cc(-c4cnc([C@@H]5CCCN5C(=O)[C@@H](NC(=O)OC)C(C)C)[nH]4)cc(F)c3-2)[nH]1)C1C[C@@H](C)O[C@@H](C)C1 (single isomer, unassigned) [Compound 546] | 0.165 nM | 0.315 nM | 0.0014 nM |  |  |  |  |  |
| COC(=O)N[C@H](C(=O)N1CCC[C@H]1c1ncc(-c2cc(C)c3c(c2)OC(c2cnc(C4CC4)s2)n2c-3cc3cc(-c4cnc([C@@H]5C[C@H]6C[C@H]6N5C(=O)[C@@H](NC(=O)OC)C(C)(C)F)[nH]4)ccc32)[nH]1)C(C)C (single isomer, unassigned) [Compound 209] | 0.155 nM | 0.197 nM |  |  |  | 0.003 nM |  |  |
| COC(=O)NC(C(=O)N1[C@@H]2C[C@@H]2C[C@H]1c1ncc(-c2ccc3c(c2)cc2n3C(c3cnc(C(C)(C)C)s3)Oc3cc(-c4cnc([C@@H]5CCCN5C(=O)[C@@H](NC(=O)OC)C(C)C)[nH]4)cc(F)c3-2)[nH]1)C(C)C (single isomer, unassigned) [Compound 323] | 0.078 nM | 0.0051 nM | 0.0032 nM |  |  |  |  |  |
| COC(=O)NC(C(=O)N1CCC[C@H]1c1ncc(-c2ccc3c(c2)cc2n3C(c3cnc(C)s3)Oc3cc(-c4cnc([C@@H]5CCCN5C(=O)[C@@H](NC(=O)OC)C(C)C)[nH]4)cc(F)c3-2)[nH]1)C1C[C@@H](C)O[C@@H](C)C1 (single isomer, unassigned) [Compound 29] | 0.192 nM | 1.09 nM | 0.002 nM |  |  |  |  |  |
| COC(=O)N[C@H](C(=O)N1CCC[C@H]1c1ncc(-c2cc(F)c3c(c2)OC(c2cnc(-c4ccccn4)s2)n2c-3cc3cc(-c4cnc([C@@H]5CCCN5C(=O)[C@@H](NC(=O)OC)C(C)C)[nH]4)ccc32)[nH]1)C(C)C (single isomer, unassigned) [Compound 406] |  |  | 0.003 nM | 0.005 nM | 0.0034 nM |  |  |  |
| COC(=O)NC(C(=O)N1[C@@H]2C[C@@H]2C[C@H]1c1ncc(-c2ccc3c(c2)cc2n3C(c3cnc(C(C)(C)C)s3)Oc3cc(-c4cnc([C@@H]5CCCN5C(=O)[C@@H](NC(=O)OC)C(C)C)[nH]4)cc(F)c3-2)[nH]1)C(C)C (single isomer, unassigned) [Compound 324] | 1.67 nM | 0.263 nM |  |  |  | 0.002 nM |  |  |
| CCc1ncc(C2Oc3cc(-c4cnc([C@@H]5CCCN5C(=O)[C@@H](NC(=O)OC)C(C)C)[nH]4)cc(F)c3-c3cc4cc(-c5cnc([C@@H]6CCCN6C(=O)C(NC(=O)OC)C6CCOC(C)(C)C6)[nH]5)ccc4n32)s1 (single isomer, unassigned) [Compound 39] | 0.004 nM | 0.0112 nM |  |  |  | 0.0037 nM |  |  |
| COC(=O)N[C@H](C(=O)N1CCC[C@H]1c1ncc(-c2cc(F)c3c(c2)OC(c2cnc(C4CC4)s2)n2c-3cc3cc(-c4cnc([C@@H]5CCCN5C(=O)[C@@H](NC(=O)OC)C(C)C)[nH]4)ccc32)[nH]1)C(C)C (single isomer, unassigned) [Compound 9] | 1.56 nM | 0.86 nM | 0.0016 nM |  |  |  |  |  |
| COC(=O)NC(C(=O)N1CCC[C@H]1c1ncc(-c2ccc3c(c2)cc2n3C(c3cnc(CC(C)C)s3)Oc3cc(-c4cnc([C@@H]5CCCN5C(=O)[C@@H](NC(=O)OC)C(C)C)[nH]4)cc(F)c3-2)[nH]1)C1CCOC(C)(C)C1 (single isomer, unassigned) [Compound 542] | 0.124 nM | 0.495 nM |  |  |  | 0.0014 nM |  |  |
| COC(=O)NC(C(=O)N1CCC[C@H]1c1ncc(-c2ccc3c(c2)cc2n3C(c3cnc(C4CCC4)s3)Oc3cc(-c4cnc([C@@H]5CCCN5C(=O)[C@@H](NC(=O)OC)C(C)C)[nH]4)cc(C)c3-2)[nH]1)C1C[C@@H](C)O[C@@H](C)C1 (single isomer, unassigned) [Compound 218] | 0.035 nM | 0.12 nM | 0.002 nM |  |  |  |  |  |
| COC(=O)NC(C(=O)N1CCC[C@H]1c1ncc(-c2ccc3c(c2)cc2n3C(c3cnc(C(C)C)s3)Oc3cc(-c4cnc([C@@H]5CCCN5C(=O)[C@@H](NC(=O)OC)C(C)C)[nH]4)cc(F)c3-2)[nH]1)C1C[C@@H](C)O[C@@H](C)C1 (single isomer, unassigned) [Compound 56] | 0.104 nM | 0.285 nM | 0.0011 nM |  |  |  |  |  |
| COC(=O)NC(C(=O)N1[C@@H]2C[C@@H]2C[C@H]1c1ncc(-c2ccc3c(c2)c(F)c2n3C(c3cnc(C4CC4)s3)Oc3cc(-c4cnc([C@@H]5CCCN5C(=O)[C@@H](NC(=O)OC)C(C)C)[nH]4)cc(F)c3-2)[nH]1)C1CCOC(C)(C)C1 (single isomer, unassigned) [Compound 113] | 0.176 nM | 0.678 nM |  |  |  | 0.002 nM |  |  |
| COC(=O)N[C@H](C(=O)N1CCC[C@H]1c1ncc(-c2cc(F)c3c(c2)OC(c2cscn2)n2c-3cc3cc(-c4cnc([C@@H]5CCCN5C(=O)[C@@H](NC(=O)OC)C(C)C)[nH]4)ccc32)[nH]1)C(C)C (single isomer, unassigned) [Compound 431] | 3.1 nM | 0.56 nM |  |  |  | 0.033 nM |  |  |
| CCc1ncc(C2Oc3cc(-c4cnc([C@@H]5CCCN5C(=O)[C@@H](NC(=O)OC)C(C)C)[nH]4)cc(F)c3-c3cc4cc(-c5cnc([C@@H]6C[C@H]7C[C@H]7N6C(=O)[C@@H](CC(=O)OC)C(C)C)[nH]5)ccc4n32)s1 (single isomer, unassigned) [Compound 84] | 0.425 nM | 0.0708 nM |  |  |  | 0.0037 nM |  |  |
| COC(=O)N[C@H](C(=O)N1CCC[C@H]1c1ncc(-c2cc(F)c3c(c2)OC(c2cscn2)n2c-3cc3cc(-c4cnc([C@@H]5CCCN5C(=O)[C@@H](NC(=O)OC)C(C)C)[nH]4)ccc32)[nH]1)C(C)C (single isomer, unassigned) [Compound 430] | 7.1 nM | 19.5 nM |  |  |  | 0.006 nM |  |  |
| COC(=O)N[C@H](C(=O)N1CCC[C@H]1c1ncc(-c2cc(F)c3c(c2)OC(c2cn4ccnc4s2)n2c-3cc3cc(-c4cnc([C@@H]5CCCN5C(=O)[C@@H](NC(=O)OC)C(C)C)[nH]4)ccc32)[nH]1)C(C)C (mixture of isomers) [Compound 417] |  |  | 0.0031 nM | 0.453 nM | 0.996 nM |  |  |  |
| COC(=O)NC(C(=O)N1CCC[C@H]1c1ncc(-c2ccc3c(c2)cc2n3C(c3nc(C(F)(F)F)cs3)Oc3cc(-c4cnc([C@@H]5CCCN5C(=O)[C@@H](NC(=O)OC)C(C)C)[nH]4)cc(F)c3-2)[nH]1)C1C[C@@H](C)O[C@@H](C)C1 (single isomer, unassigned) [Compound 75] | 0.491 nM | 0.875 nM | 0.0022 nM |  |  |  |  |  |
| COC(=O)NC(C(=O)N1[C@@H]2C[C@@H]2C[C@H]1c1ncc(-c2ccc3c(c2)cc2n3C(c3cnc(CC(C)C)s3)Oc3cc(-c4cnc([C@@H]5CCCN5C(=O)[C@@H](NC(=O)OC)C(C)C)[nH]4)cc(F)c3-2)[nH]1)C1CCOC(C)(C)C1 (single isomer, unassigned) [Compound 436] |  |  |  |  |  | 0.0011 nM | 0.318 nM | 0.126 nM |
